Reference: patent US20120295247A1, “PORCINE SEMINAL MATERIAL COMPOSITION FOR ARTIFICIAL INSEMINATION OF SOWS” (GENES DIFFUSION, priority 2009, published 2012)

Test system: spermatozoa present in free semen
Text: In order to obtain efficient fertilization, more than 50% of the spermatozoa have to be […] (i.e. having an individual displacement velocity of more than 20 micrometers per second).
Gedil® is a diluting agent consisting of a biological medium favorable to preservation of spermatozoa.

## [Ba+2].[Cl-].[Cl-] [BaCl2, barium chloride]
BaCl2 at 5 or 10% on free semen, after two days
  motility of the spermatozoa: significant reduction
Products present in the capsules
  effect on essential properties (such as the motility) of porcine spermatozoa: alter the essential properties
Spermatozoa diluted in media other than Gedil, addition of BaCl2
  toxicity (or stress) for spermatozoa: toxicity
